# Measured values published in PubChem BioAssay (NCI).
#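 Tested at 5 concentrations; 48 h exposure; 96-well plates; endpoints linearly interpolated, else capped at highest concentration. TGI: total growth inhibition.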
# Experiments:
# Test in all cases: NCI tumour cell line growth inhibition, 48 h
# 786-0 renal = tested on: 786-0 renal
# A498 renal = tested on: A498 renal
# A549 NSCLC = tested on: A549 NSCLC
# ACHN renal = tested on: ACHN renal
# BT-549 breast = tested on: BT-549 breast
# CAKI-1 renal = tested on: CAKI-1 renal
# CCRF-CEM leukemia = tested on: CCRF-CEM leukemia
# COLO 205 colon = tested on: COLO 205 colon
# DU-145 prostate = tested on: DU-145 prostate
# EKVX NSCLC = tested on: EKVX NSCLC
# HCC-2998 colon = tested on: HCC-2998 colon
# HCT-116 colon = tested on: HCT-116 colon
# HCT-15 colon = tested on: HCT-15 colon
# HL-60(TB) leukemia = tested on: HL-60(TB) leukemia
# HOP-62 NSCLC = tested on: HOP-62 NSCLC
# HOP-92 NSCLC = tested on: HOP-92 NSCLC
# HS 578T breast = tested on: HS 578T breast
# HT29 colon = tested on: HT29 colon
# IGROV1 ovarian = tested on: IGROV1 ovarian
# K-562 leukemia = tested on: K-562 leukemia
# KM12 colon = tested on: KM12 colon
# LOX IMVI melanoma = tested on: LOX IMVI melanoma
# M14 melanoma = tested on: M14 melanoma
# MALME-3M melanoma = tested on: MALME-3M melanoma
# MCF7 breast = tested on: MCF7 breast
# MDA-MB-231 breast = tested on: MDA-MB-231 breast
# MDA-MB-435 = tested on: MDA-MB-435
# MDA-N = tested on: MDA-N
# MOLT-4 leukemia = tested on: MOLT-4 leukemia
# NCI-H226 lung = tested on: NCI-H226 lung
# NCI-H23 lung = tested on: NCI-H23 lung
# NCI-H460 lung = tested on: NCI-H460 lung
# NCI-H522 lung = tested on: NCI-H522 lung
# NCI/ADR-RES ovarian = tested on: NCI/ADR-RES ovarian
# OVCAR-3 ovarian = tested on: OVCAR-3 ovarian
# OVCAR-4 ovarian = tested on: OVCAR-4 ovarian
# OVCAR-5 ovarian = tested on: OVCAR-5 ovarian
# OVCAR-8 ovarian = tested on: OVCAR-8 ovarian
# PC-3 prostate = tested on: PC-3 prostate
# RPMI-8226 leukemia = tested on: RPMI-8226 leukemia
# RXF 393 renal = tested on: RXF 393 renal
# SF-268 CNS = tested on: SF-268 CNS
# SF-295 CNS = tested on: SF-295 CNS
# SF-539 CNS = tested on: SF-539 CNS
# SK-MEL-2 melanoma = tested on: SK-MEL-2 melanoma
# SK-MEL-28 melanoma = tested on: SK-MEL-28 melanoma
# SK-MEL-5 melanoma = tested on: SK-MEL-5 melanoma
# SK-OV-3 ovarian = tested on: SK-OV-3 ovarian
# SN12C renal = tested on: SN12C renal
# SNB-19 CNS = tested on: SNB-19 CNS
# SNB-75 CNS = tested on: SNB-75 CNS
# SR leukemia = tested on: SR leukemia
# SW-620 colon = tested on: SW-620 colon
# T-47D breast = tested on: T-47D breast
# TK-10 renal = tested on: TK-10 renal
# U251 CNS = tested on: U251 CNS
# UACC-257 melanoma = tested on: UACC-257 melanoma
# UACC-62 melanoma = tested on: UACC-62 melanoma
# UO-31 renal = tested on: UO-31 renal
structure (smiles),measurement,setting,value
N#Cc1c(N2CCCC2)ncn(-c2ccccc2)c1=S,TGI,786-0 renal,> 100 µM
same,TGI,A498 renal,> 100 µM
same,TGI,A549 NSCLC,> 100 µM
same,TGI,ACHN renal,> 100 µM
same,TGI,BT-549 breast,> 100 µM
same,TGI,CAKI-1 renal,> 100 µM
same,TGI,CCRF-CEM leukemia,> 100 µM
same,TGI,COLO 205 colon,> 100 µM
same,TGI,DU-145 prostate,> 100 µM
same,TGI,EKVX NSCLC,> 100 µM
same,TGI,HCC-2998 colon,> 100 µM
same,TGI,HCT-116 colon,> 100 µM
same,TGI,HCT-15 colon,> 100 µM
same,TGI,HL-60(TB) leukemia,> 100 µM
same,TGI,HOP-62 NSCLC,> 100 µM
same,TGI,HOP-92 NSCLC,> 100 µM
same,TGI,HS 578T breast,> 100 µM
same,TGI,HT29 colon,> 100 µM
same,TGI,IGROV1 ovarian,> 100 µM
same,TGI,K-562 leukemia,> 100 µM
same,TGI,KM12 colon,> 100 µM
same,TGI,LOX IMVI melanoma,> 100 µM
same,TGI,M14 melanoma,> 100 µM
same,TGI,MALME-3M melanoma,> 100 µM
same,TGI,MCF7 breast,> 100 µM
same,TGI,MDA-MB-231 breast,> 100 µM
same,TGI,MDA-MB-435,> 100 µM
same,TGI,MDA-N,> 100 µM
same,TGI,MOLT-4 leukemia,> 100 µM
same,TGI,NCI-H226 lung,> 100 µM
same,TGI,NCI-H23 lung,> 100 µM
same,TGI,NCI-H460 lung,> 100 µM
same,TGI,NCI-H522 lung,> 100 µM
same,TGI,NCI/ADR-RES ovarian,> 100 µM
same,TGI,OVCAR-3 ovarian,> 100 µM
same,TGI,OVCAR-4 ovarian,> 100 µM
same,TGI,OVCAR-5 ovarian,> 100 µM
same,TGI,OVCAR-8 ovarian,> 100 µM
same,TGI,PC-3 prostate,> 100 µM
same,TGI,RPMI-8226 leukemia,> 100 µM
same,TGI,RXF 393 renal,> 100 µM
same,TGI,SF-268 CNS,> 100 µM
same,TGI,SF-295 CNS,> 100 µM
same,TGI,SF-539 CNS,> 100 µM
same,TGI,SK-MEL-2 melanoma,> 100 µM
same,TGI,SK-MEL-28 melanoma,> 100 µM
same,TGI,SK-MEL-5 melanoma,> 100 µM
same,TGI,SK-OV-3 ovarian,> 100 µM
same,TGI,SN12C renal,> 100 µM
same,TGI,SNB-19 CNS,> 100 µM
same,TGI,SNB-75 CNS,> 100 µM
same,TGI,SR leukemia,> 100 µM
same,TGI,SW-620 colon,> 100 µM
same,TGI,T-47D breast,> 100 µM
same,TGI,TK-10 renal,> 100 µM
same,TGI,U251 CNS,> 100 µM
same,TGI,UACC-257 melanoma,> 100 µM
same,TGI,UACC-62 melanoma,69.3 µM
same,TGI,UO-31 renal,> 100 µM
CC(C)(C)c1ccc(S(=O)(=O)N2C(c3cccc(C4CC[C@@H](C(=O)O)N4S(=O)(=O)c4ccc(C(C)(C)C)cc4)c3)CC[C@H]2C(=O)O)cc1 (stereo partly specified),TGI,786-0 renal,> 100 µM
same,TGI,A498 renal,> 100 µM
same,TGI,A549 NSCLC,> 100 µM
same,TGI,ACHN renal,> 100 µM
same,TGI,BT-549 breast,> 100 µM
same,TGI,CAKI-1 renal,> 100 µM
same,TGI,CCRF-CEM leukemia,> 100 µM
same,TGI,COLO 205 colon,> 100 µM
same,TGI,DU-145 prostate,> 100 µM
same,TGI,EKVX NSCLC,> 100 µM
same,TGI,HCC-2998 colon,> 100 µM
same,TGI,HCT-116 colon,> 100 µM
same,TGI,HCT-15 colon,> 100 µM
same,TGI,HL-60(TB) leukemia,> 100 µM
same,TGI,HOP-62 NSCLC,> 100 µM
same,TGI,HOP-92 NSCLC,> 100 µM
same,TGI,HS 578T breast,> 100 µM
same,TGI,HT29 colon,> 100 µM
same,TGI,IGROV1 ovarian,> 100 µM
same,TGI,K-562 leukemia,> 100 µM
same,TGI,KM12 colon,> 100 µM
same,TGI,LOX IMVI melanoma,> 100 µM
same,TGI,M14 melanoma,> 100 µM
same,TGI,MALME-3M melanoma,> 100 µM
same,TGI,MCF7 breast,> 100 µM
same,TGI,MDA-MB-231 breast,> 100 µM
same,TGI,MDA-MB-435,> 100 µM
same,TGI,MDA-N,> 100 µM
same,TGI,MOLT-4 leukemia,> 100 µM
same,TGI,NCI-H226 lung,> 100 µM
same,TGI,NCI-H23 lung,> 100 µM
same,TGI,NCI-H460 lung,> 100 µM
same,TGI,NCI-H522 lung,> 100 µM
same,TGI,NCI/ADR-RES ovarian,> 100 µM
same,TGI,OVCAR-3 ovarian,> 100 µM
same,TGI,OVCAR-4 ovarian,> 100 µM
same,TGI,OVCAR-5 ovarian,> 100 µM
same,TGI,OVCAR-8 ovarian,> 100 µM
same,TGI,PC-3 prostate,> 100 µM
same,TGI,RPMI-8226 leukemia,> 100 µM
same,TGI,RXF 393 renal,> 100 µM
same,TGI,SF-268 CNS,> 100 µM
same,TGI,SF-295 CNS,> 100 µM
same,TGI,SF-539 CNS,> 100 µM
same,TGI,SK-MEL-2 melanoma,> 100 µM
same,TGI,SK-MEL-28 melanoma,> 100 µM
same,TGI,SK-MEL-5 melanoma,> 100 µM
same,TGI,SK-OV-3 ovarian,> 100 µM
same,TGI,SN12C renal,> 100 µM
same,TGI,SNB-19 CNS,> 100 µM
same,TGI,SNB-75 CNS,> 100 µM
same,TGI,SR leukemia,> 100 µM
same,TGI,SW-620 colon,> 100 µM
same,TGI,T-47D breast,> 100 µM
same,TGI,TK-10 renal,> 100 µM
same,TGI,U251 CNS,> 100 µM
same,TGI,UACC-257 melanoma,> 100 µM
same,TGI,UACC-62 melanoma,> 100 µM
same,TGI,UO-31 renal,87.3 µM
C=CCN1C(N)=C(C#N)C(C#N)(C#N)C1CCC (stereo unspecified),TGI,786-0 renal,> 100 µM
same,TGI,A498 renal,> 100 µM
same,TGI,A549 NSCLC,> 100 µM
same,TGI,ACHN renal,> 100 µM
same,TGI,BT-549 breast,> 100 µM
same,TGI,CAKI-1 renal,> 100 µM
same,TGI,CCRF-CEM leukemia,> 100 µM
same,TGI,COLO 205 colon,> 100 µM
same,TGI,DU-145 prostate,> 100 µM
same,TGI,EKVX NSCLC,> 100 µM
same,TGI,HCC-2998 colon,> 100 µM
same,TGI,HCT-116 colon,> 100 µM
same,TGI,HCT-15 colon,> 100 µM
same,TGI,HL-60(TB) leukemia,> 100 µM
same,TGI,HOP-62 NSCLC,> 100 µM
same,TGI,HOP-92 NSCLC,> 100 µM
same,TGI,HS 578T breast,> 100 µM
same,TGI,HT29 colon,> 100 µM
same,TGI,IGROV1 ovarian,> 100 µM
same,TGI,K-562 leukemia,> 100 µM
same,TGI,KM12 colon,> 100 µM
same,TGI,LOX IMVI melanoma,> 100 µM
same,TGI,M14 melanoma,> 100 µM
same,TGI,MALME-3M melanoma,> 100 µM
same,TGI,MCF7 breast,> 100 µM
same,TGI,MDA-MB-231 breast,> 100 µM
same,TGI,MDA-MB-435,> 100 µM
same,TGI,MDA-N,> 100 µM
same,TGI,MOLT-4 leukemia,> 100 µM
same,TGI,NCI-H226 lung,> 100 µM
same,TGI,NCI-H23 lung,> 100 µM
same,TGI,NCI-H460 lung,> 100 µM
same,TGI,NCI-H522 lung,> 100 µM
same,TGI,NCI/ADR-RES ovarian,> 100 µM
same,TGI,OVCAR-3 ovarian,> 100 µM
same,TGI,OVCAR-4 ovarian,> 100 µM
same,TGI,OVCAR-5 ovarian,> 100 µM
same,TGI,OVCAR-8 ovarian,> 100 µM
same,TGI,PC-3 prostate,> 100 µM
same,TGI,RPMI-8226 leukemia,> 100 µM
same,TGI,RXF 393 renal,> 100 µM
same,TGI,SF-268 CNS,> 100 µM
same,TGI,SF-295 CNS,> 100 µM
same,TGI,SF-539 CNS,> 100 µM
same,TGI,SK-MEL-2 melanoma,> 100 µM
same,TGI,SK-MEL-5 melanoma,> 100 µM
same,TGI,SK-OV-3 ovarian,> 100 µM
same,TGI,SN12C renal,> 100 µM
same,TGI,SNB-19 CNS,> 100 µM
same,TGI,SNB-75 CNS,> 100 µM
same,TGI,SR leukemia,> 100 µM
same,TGI,SW-620 colon,> 100 µM
same,TGI,T-47D breast,> 100 µM
same,TGI,TK-10 renal,> 100 µM
same,TGI,U251 CNS,> 100 µM
same,TGI,UACC-257 melanoma,> 100 µM
same,TGI,UACC-62 melanoma,> 100 µM
same,TGI,UO-31 renal,> 100 µM
